The record followed here is patent publication US9345677B2, “Compositions, methods and kits relating to HER-2 cleavage” (Incyte Corporation, priority 2003, dated 2016).

The test system of one experiment is MCF7 cells. The experiment can be described thus: Cell proliferation assay (cell counting, BrdU incorporation). As to conditions: MCF7 cells which do not overexpress Her-2. The format is cell-based, human.
In a further experiment the target is MMP12 (Homo sapiens, UniProt P39900). The experiment in a line: MMP12 fluorogenic peptide biochemical assay. From the text: Source of enzymes for biochemical assays: Except for ADAM17 and MT1-MMP, all recombinant human MMPs and ADAMs were obtained from R&D Systems (Minneapolis, Minn.). […] MT1-MMP was obtained from US Biological (Swampscott, Mass.) with a catalog number of M2429. Porcine ADAM17 was purified in house from porcine spleen.
Substrates for biochemical assays: Fluorogenic Peptide substrate, (7-methoxycoumarin-4-yl)acetyl-Pro-Leu-Gly-Leu-(3-[2,4-dinitrophenyl]-L-2,3-diaminopropionyl)-Ala-Arg-NH2 (SEQ ID NO: 46), was obtained from R&D Systems (Minneapolis, Minn.) with a catalog number of ES001. It was used as substrate for MMP1, MMP2, MMP7, MMP8, MMP9, MMP12, MMP13, and MT1-MMP. Fluorogenic Peptide substrate, (7-methoxycoumarin-4-yl)acetyl-Arg-Pro-Lys-Pro-Val-Glu-Nva-Trp-Arg-Lys(2,4-dinitrophenyl)-NH2 (SEQ ID NO: 47), was obtained from R&D Systems with a catalog number of ES002. It was used as substrate for MMP3 and MMP10. […]
In general, 5 mM compound stock was prepared in DMSO. […] The plate was read on a plate reader with excitation of 320 nm and emission of 405 nm. Percentage of inhibition was calculated for each concentration and IC50 value was generated from curve fitting. […]

The subject of the next experiment is Her-2 sheddase. The experiment in a line: Her-2 ECD ELISA of BT474 culture supernatants (Her-2 sheddase inhibition). It is filed as cell-based, human. The method, then:
BT474 cells were seeded in 100 μL of RPMI medium containing 10% FCS+10 μg/ml insulin in 96 well plates at 2×10^4 cells/well. The cells were incubated overnight at 37° C. The following morning, the media was removed and 100 μL of fresh media with or without compound was added back. The cells were incubated for about 72 hours at 37° C. After about 72 hours, the supernatants were removed. The samples were diluted 1:10 and analyzed using a commercially available Her-2 ELISA kit per manufacturer's instructions (Oncogene Research, catalog #QIA 10).
These inhibitors were added, at varying concentrations, to cultures of BT474 cells, a Her-2 overexpressing breast cancer cell line known to enzymatically process cell surface Her-2 (p185) and release the extracellular domain (ECD) into the culture supernatant, i.e., shedding of ECD. After 72 hours, cell culture supernatants were harvested and assayed for Her-2 ECD content using an ELISA assay.

In the next experiment the test system is BT474 cells. The experiment in a line: Cell proliferation assay (cell counting, BrdU incorporation). The format is cell-based, human. Conditions: Her-2 overexpressing BT474 cells.

Chain of MMP12 (P39900 106-470): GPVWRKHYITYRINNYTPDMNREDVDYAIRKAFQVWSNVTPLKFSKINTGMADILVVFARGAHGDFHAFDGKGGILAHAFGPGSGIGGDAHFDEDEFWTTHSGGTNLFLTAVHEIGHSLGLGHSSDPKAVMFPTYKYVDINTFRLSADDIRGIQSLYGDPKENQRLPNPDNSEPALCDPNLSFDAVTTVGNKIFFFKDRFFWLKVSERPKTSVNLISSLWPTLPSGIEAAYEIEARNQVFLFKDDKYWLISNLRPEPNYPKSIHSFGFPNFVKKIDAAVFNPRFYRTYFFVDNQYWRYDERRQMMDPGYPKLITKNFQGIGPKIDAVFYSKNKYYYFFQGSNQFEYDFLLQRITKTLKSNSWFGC
Procedure for BT474 cells: (§1) Proliferation assays were routinely performed with two protocols: cell counting and BrdU incorporation assay. For cell counting, cells (1×10^5) were seeded in each well of 12 well plates and cultured overnight. Then, cells were treated for 6 days with drugs and compounds as indicated in individual experiments. Culture media were replaced with fresh media containing the same concentrations of drugs and compounds after the first 3 days of treatment. Viable cells were counted with hemacytometers immediately after trypan blue staining.
The BrdU incorporation assay was performed using a colorimetric Cell Proliferation ELISA kit per manufacturer's instruction (#1647229, Roche Molecular Biochemicals), measuring DNA synthesis in proliferating cells. Briefly, cells (5−10×10^3) were seeded in each well of 96 well plates and cultured overnight. […] Finally, 100 μl/well of substrate solution was added and the results were obtained using a microplate reader (Spectra Max PLUS, Molecular Devices) during color development. Multiple readings at various time points were obtained and results in the linear range of the assay were obtained. […]
After varying periods of cell culture (2-6 days), the cell cultures were harvested and cell growth was assessed by cell count and BRdU incorporation using standard protocols.
Procedure for MCF7 cells: as §1
The BrdU incorporation assay was performed using a colorimetric Cell Proliferation ELISA kit per manufacturer's instruction (#1647229, Roche Molecular Biochemicals), measuring DNA synthesis in proliferating cells. Briefly, cells (5−10×10^3) were seeded in each well of 96 well plates and cultured overnight. The next day, culture media were replaced with fresh media containing drugs and compounds as indicated for individual experiments. […] Finally, 100 μl/well of substrate solution was added and the results were obtained using a microplate reader (Spectra Max PLUS, Molecular Devices) during color development. Multiple readings at various time points were obtained and results in the linear range of the assay were obtained. […]

Consider `CN1CC2(CC2)C[C@H](C(=O)NO)[C@H]1C(=O)N1CCN(c2ccc(C(F)(F)F)cn2)CC1` [Compound 6], for which the “effect on antiproliferative activity of a suboptimal dose of Herceptin” value in the experiment on MCF7 cells and in the experiment with BT474 cells was “does not enhance” throughout. The compound further came in with an IC50 on MMP12 of 1.95 nM. Further, the Her-2 sheddase activity result with Her-2 sheddase is “inactive”.
